Reference: patent US11370816B2, “Histatins and method of use thereof” (THE BOARD OF TRUSTEES OF THE UNIVERSITY OF ILLINOIS, priority 2015, dated 2022)
Starred links: 1 amine or outer side, 2 acyl side, 3 side chain; linkers in the order of their positions; H or OH if unused. Non-standard residues stand in square brackets, D forms with d. No end group written: not given here. (CH2)6 = -(CH2)6- hydrocarbon linking residues, C(CCC[*:2])CC[*:1]; pS = N[C@@H](COP(=O)(O)O)C(=O)O

Legend:
Candida albicans = details: Jang, et al. (2008); cited from earlier work
[1] = Oudhoff, et al. (2008); cited from earlier work
[2] = tested on: human corneal epithelial cells; experiment: Benzalkonium chloride (BAK) injury model, LDH release; assay type: cell-based; details: 0.002% BAK
Method: Columns represent the mortality (mean±SD) of cells, total cellular death being 100% (Control).
One particularly useful model of dry eye disease and inflammatory ocular disease is the use of benzalkonium chloride (BAK) to induce cell death, inflammation and injury to ocular surfaces and corneal cells (Tressler, et al. (2011) Ocul. Surf. 9:140-58; Paimela, et al. (2012) Mol. Vis. 18:1189-1196). Briefly, human corneal epithelial cells were cultured under standard conditions. Cells were treated with native HTN5 (50 μM) or synthetic histatin (10 μM) in the presence or absence of 0.002% BAK. The permeability of cellular membranes following the exposures was determined by measuring the amount of released lactate dehydrogenase (LDH) enzyme from the cells. Maximum LDH release of cells was determined by lysing cells, and subsequently measuring the LDH from the culture medium. […] Accordingly, endogenous and synthetic histatins could be used to protect cells from injury, inflammation and cell death and are therefore of use in the treatment of dry eye disease.

[3] = tested on: Human umbilical vein endothelial cells (HUVECs); experiment: Tube formation assay, VEGF-induced angiogenesis; assay type: cell-based; details: VEGF 10 ng/mL, peptide 50 μM
Method: Tube formation assays were used to assess the anti-angiogenic property of synthetic histatin compared to native HTN1 and HTN2. Human umbilical vein endothelial cells (HUVECs) were suspended in diluted MATRIGEL for an overnight incubation and then subjected to a media change containing VEGF (10 ng/mL) (Goodwin (2007) Microvasc. Res. 74:172-83) alone or VEGF (10 ng/mL) in combination with HTN1, HTN2 or synthetic histatin (50 μM).

[4] = tested on: human corneal epithelium cells; experiment: In vitro scratch assay (cell migration, wound closure); assay type: cell-based; details: for Time to Closure: control no closure in 48 hours
From the text: A conventional in vitro scratch assay was used to measure cell migration in the presence of a synthetic histatin containing three metal binding domains from HTN5 and one wound healing domain (i.e., SEQ ID NO:29). A “scratch” was made in a monolayer of human corneal epithelium cells and time lapsed microscopy was used to capture images at the beginning and at regular intervals during cell migration to close the scratch.

MMP2 = target: T1, MMP2 (Homo sapiens, UniProt P08253); experiment: Zymography analysis of MMP2 inhibition; assay type: biochemical; details: pro-MMP2 activated with APMA, varying amounts of peptide
T1 sequence (P08253 110-660): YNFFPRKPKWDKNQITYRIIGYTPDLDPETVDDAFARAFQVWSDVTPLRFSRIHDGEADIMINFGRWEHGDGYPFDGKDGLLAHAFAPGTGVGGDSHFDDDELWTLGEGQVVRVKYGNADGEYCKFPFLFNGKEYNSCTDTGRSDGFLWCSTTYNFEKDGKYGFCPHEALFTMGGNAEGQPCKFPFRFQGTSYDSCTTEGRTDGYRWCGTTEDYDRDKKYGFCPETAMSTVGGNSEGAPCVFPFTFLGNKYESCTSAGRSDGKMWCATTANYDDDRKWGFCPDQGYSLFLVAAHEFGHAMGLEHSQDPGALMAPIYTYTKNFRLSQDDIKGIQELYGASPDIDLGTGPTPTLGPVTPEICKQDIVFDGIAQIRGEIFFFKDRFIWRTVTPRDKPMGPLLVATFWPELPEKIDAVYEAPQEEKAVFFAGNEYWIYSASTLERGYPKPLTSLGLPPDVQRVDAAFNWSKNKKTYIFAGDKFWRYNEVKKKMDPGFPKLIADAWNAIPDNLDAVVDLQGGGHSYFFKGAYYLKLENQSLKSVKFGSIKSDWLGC
Method: FIG. 1 show zymographic analysis of synthetic histatin inhibitory activity. Experiments included pro-MMP2 (100 ng; “−Ve”); activation of Pro-MMP2 with APMA (1 mM; “+Ve”); inclusion of a classic matrix metalloproteinase inhibitor, GM6001 (200 nM; “Inh”); and varying amounts of a synthetic histatin containing three metal binding domains from endogenous HTN5 and a wound healing domain from endogenous HTN1 (“H-1”). The protein ladder is shown on the right.
Zymography analysis of a synthetic histatin containing three metal binding domains from HTN5 and one wound healing domain (i.e., SEQ ID NO:29) was carried out using conventional methods. See, e.g., Thomadaki, et al. (2013) Oral Dis. 19(8):781-8.

human corneal epithelium = experiment: Gene expression changes after synthetic histatin application; assay type: cell-based; details: synthetic histatin treatment
From the text: Pathophysiological analyses of dry eye disease indicate that the critical factors involved in the development of dry eye disease involve inflammatory pathways including Th17/IL-17, I-CAM, IL-8, TNFα/IL-1/IL-6/NFκB, IL-10, MMP9 (and other matrix metalloproteinases) and TLR4/HSP (Stevenson, et al. (2012) Arch. Ophthalmol. 130(1):90-100). In addition, it has been reported that Ephrin A is involved in the development of epitheliopathy, poor wound healing and corneal disease related to elevated sugar levels/diabetic and neuropathic ulcers of the ocular surface. Accordingly, it was determined what effect synthetic histatin application would have on the gene expression in human corneal epithelium. […] Th17/IL-17 pathway is a central and important pathway in dry eye disease (Stevenson, et al. (2012) Arch Ophthalmol. 130(1):90-100).

[5] = Oppenheim, et al. (2012); cited from earlier work

AKRHHGYKRKFH [P-113]
fungicidal activity (Candida albicans): exhibits fungicidal activity

DSHAKRHHGYKRKFHEKHHSHRGY [HTN5, endogenous (native) histatin 5, reference compound]
wound closure activity in vitro [1]: inactivity | cell death (released LDH) ([2]; 50 μM peptide): statistically significant reduction in cell death

DSHAKRHHGYKRKFHEKHHSHRGYRSNYLYDN [HTN3, endogenous (native) histatin 3]
wound closure activity in vitro [1]: exhibit wound closure activities in vitro

DSpHEKRHHGYRRKFHEKHHSHREFPFYGDYGSNYLYDN (D[pS]HEKRHHGYRRKFHEKHHSHREFPFYGDYGSNYLYDN) [HTN1, endogenous (native) histatin 1]
formation of capillary-like structures / inhibition of angiogenesis [3]: inhibition of angiogenesis | wound closure activity in vitro [1]: exhibit wound closure activities in vitro

HEKHH-(CH2)6-HEKHH-(CH2)6-HEKHH-(CH2)6-YGDYGSNYLYDN (HEKHH[(CH2)6]HEKHH[(CH2)6]HEKHH[(CH2)6]YGDYGSNYLYDN) [synthetic histatin]
formation of capillary-like structures / inhibition of angiogenesis [3]: did not form such structures | Time to Closure ([4]; 1 μM synthetic histatin): 48 h | Time to Closure ([4]; 10 μM synthetic histatin): 22 h | wound healing (reduction in time to wound closure) ([4]; scratch in monolayer, time lapsed microscopy): notable enhancement of wound healing | inhibition of MMP2 activity (MMP2): inhibited MMP2 activity in a dose-dependent manner | cell death (released LDH) ([2]; 10 μM peptide): statistically significant reduction in cell death | expression of genes related to MMP activity (human corneal epithelium): reduced | expression of several members of the TNFα/IL-1/IL-6/NFKB pathway (human corneal epithelium): significant reduced | genes of the IL-10 pathway (62 genes) affected (human corneal epithelium): 6 | genes of the TLR4/HSP pathway (54 genes) significantly affected (human corneal epithelium): 5 | genes of the Th17/IL-17 pathway (44 genes) with significant changes in gene expression (human corneal epithelium): 7

RKFHEKHHSHREFPFYGDYGSNYLYDN [HTN2, endogenous (native) histatin 2]
formation of capillary-like structures / inhibition of angiogenesis [3]: inhibition of angiogenesis

RKFHEKHHSHRGYR [SEQ ID NO:53]
fungicidal activity [5]: exhibit fungicidal activity
